# Source: ChEMBL document CHEMBL4177722, “Small molecule inhibitors of anthrax edema factor” (Bioorg Med Chem Lett, 2018)
# pKi: −log10 of the molar value.
# How the values were obtained:
# [1] = molecular target: T1, Calcium/calmodulin-dependent protein kinase type IV (Homo sapiens) (UniProt Q16566); assay: Inhibition of human CAMK4 at 10 uM by ADP-Glo kinase assay
# T1 sequence (whole entry): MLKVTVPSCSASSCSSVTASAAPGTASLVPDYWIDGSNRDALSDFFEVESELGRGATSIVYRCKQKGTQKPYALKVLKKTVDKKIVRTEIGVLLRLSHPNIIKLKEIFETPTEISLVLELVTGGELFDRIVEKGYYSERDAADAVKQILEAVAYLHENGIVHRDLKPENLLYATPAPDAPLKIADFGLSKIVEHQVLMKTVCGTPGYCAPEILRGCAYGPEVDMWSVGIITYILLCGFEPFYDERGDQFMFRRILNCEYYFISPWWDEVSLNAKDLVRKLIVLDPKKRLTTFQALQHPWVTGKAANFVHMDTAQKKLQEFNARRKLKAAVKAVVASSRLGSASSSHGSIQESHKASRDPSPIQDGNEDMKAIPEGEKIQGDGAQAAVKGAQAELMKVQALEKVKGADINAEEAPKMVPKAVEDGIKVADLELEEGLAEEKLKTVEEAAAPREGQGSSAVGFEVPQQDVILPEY
# [2] = molecular target: RAC-alpha serine/threonine-protein kinase (Homo sapiens) (UniProt P31749); assay: Inhibition of human AKT1 at 10 uM by ADP-Glo kinase assay
# [3] = molecular target: T2, Calmodulin-sensitive adenylate cyclase (Bacillus anthracis) (UniProt P40136); assay: Inactivation of Bacillus anthracis edema factor assessed as Kinact/Ki ratio in presence of CaM incubated for 10 to 240 mins by EnzChek pyrophosphate assay
# T2 sequence (whole entry): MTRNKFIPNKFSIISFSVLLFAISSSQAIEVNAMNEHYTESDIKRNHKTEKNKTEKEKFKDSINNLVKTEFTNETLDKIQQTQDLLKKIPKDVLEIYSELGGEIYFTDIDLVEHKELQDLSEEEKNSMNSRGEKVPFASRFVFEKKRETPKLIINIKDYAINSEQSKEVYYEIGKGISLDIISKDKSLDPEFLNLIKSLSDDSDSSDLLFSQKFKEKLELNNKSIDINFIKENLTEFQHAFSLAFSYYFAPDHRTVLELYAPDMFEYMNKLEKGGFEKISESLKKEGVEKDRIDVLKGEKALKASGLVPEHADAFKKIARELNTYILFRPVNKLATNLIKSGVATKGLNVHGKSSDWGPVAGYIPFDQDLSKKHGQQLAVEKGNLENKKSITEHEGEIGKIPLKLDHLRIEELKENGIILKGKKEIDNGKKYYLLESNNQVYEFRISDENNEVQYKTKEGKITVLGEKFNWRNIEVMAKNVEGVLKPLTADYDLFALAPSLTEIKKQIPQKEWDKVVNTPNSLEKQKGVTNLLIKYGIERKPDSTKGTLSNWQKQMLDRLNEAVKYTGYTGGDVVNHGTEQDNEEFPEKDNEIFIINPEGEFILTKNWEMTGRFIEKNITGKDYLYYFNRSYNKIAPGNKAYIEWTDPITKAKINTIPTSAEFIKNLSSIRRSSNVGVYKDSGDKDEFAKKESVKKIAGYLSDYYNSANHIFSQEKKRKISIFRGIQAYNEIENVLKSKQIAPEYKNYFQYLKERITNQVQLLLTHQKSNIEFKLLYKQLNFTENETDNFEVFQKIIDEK
# [4] = molecular target: Casein kinase II subunit alpha (Homo sapiens) (UniProt P68400); assay: Inhibition of human CK2a1 at 10 uM by ADP-Glo kinase assay
# [5] = molecular target: Casein kinase I isoform gamma-1 (Homo sapiens) (UniProt Q9HCP0); assay: Inhibition of human CK1g1 at 10 uM by ADP-Glo kinase assay
# [6] = molecular target: T3, Serine/threonine-protein kinase Chk1 (Homo sapiens) (UniProt O14757); assay: Inhibition of human CHK1 at 10 uM by ADP-Glo kinase assay
# T3 sequence (whole entry): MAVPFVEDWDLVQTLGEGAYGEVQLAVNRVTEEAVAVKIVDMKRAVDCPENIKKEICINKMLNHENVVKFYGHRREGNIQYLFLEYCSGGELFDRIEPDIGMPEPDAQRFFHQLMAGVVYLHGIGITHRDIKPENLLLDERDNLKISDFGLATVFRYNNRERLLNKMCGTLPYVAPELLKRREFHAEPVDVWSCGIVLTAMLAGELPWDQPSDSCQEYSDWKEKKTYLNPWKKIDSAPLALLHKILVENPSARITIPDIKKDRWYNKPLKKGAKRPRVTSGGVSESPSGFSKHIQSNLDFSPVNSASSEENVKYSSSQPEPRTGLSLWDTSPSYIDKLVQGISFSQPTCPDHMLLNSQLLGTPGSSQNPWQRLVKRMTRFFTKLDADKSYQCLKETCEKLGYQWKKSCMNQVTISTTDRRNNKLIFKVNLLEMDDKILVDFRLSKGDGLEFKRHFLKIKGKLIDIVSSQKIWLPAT
# [7] = molecular target: T2, Calmodulin-sensitive adenylate cyclase (Bacillus anthracis); assay: Inactivation of Bacillus anthracis edema factor assessed as inactivation rate constant in presence of CaM incubated for 10 to 240 mins by EnzChek pyrophosphate assay
# [8] = molecular target: T4, Calmodulin-sensitive adenylate cyclase (Bacillus anthracis, UniProt P40136); assay: Inactivation of Bacillus anthracis edema factor in presence of CaM incubated for 10 to 240 mins by EnzChek pyrophosphate assay
# T4 sequence (P40136 whole entry): T2 sequence (whole entry)
# [9] = molecular target: Misshapen-like kinase 1 (Homo sapiens) (UniProt Q8N4C8); assay: Inhibition of human MINK at 10 uM by ADP-Glo kinase assay
# Misshapen-like kinase 1 (Homo sapiens), sequence (Q8N4C8 whole entry, looked up): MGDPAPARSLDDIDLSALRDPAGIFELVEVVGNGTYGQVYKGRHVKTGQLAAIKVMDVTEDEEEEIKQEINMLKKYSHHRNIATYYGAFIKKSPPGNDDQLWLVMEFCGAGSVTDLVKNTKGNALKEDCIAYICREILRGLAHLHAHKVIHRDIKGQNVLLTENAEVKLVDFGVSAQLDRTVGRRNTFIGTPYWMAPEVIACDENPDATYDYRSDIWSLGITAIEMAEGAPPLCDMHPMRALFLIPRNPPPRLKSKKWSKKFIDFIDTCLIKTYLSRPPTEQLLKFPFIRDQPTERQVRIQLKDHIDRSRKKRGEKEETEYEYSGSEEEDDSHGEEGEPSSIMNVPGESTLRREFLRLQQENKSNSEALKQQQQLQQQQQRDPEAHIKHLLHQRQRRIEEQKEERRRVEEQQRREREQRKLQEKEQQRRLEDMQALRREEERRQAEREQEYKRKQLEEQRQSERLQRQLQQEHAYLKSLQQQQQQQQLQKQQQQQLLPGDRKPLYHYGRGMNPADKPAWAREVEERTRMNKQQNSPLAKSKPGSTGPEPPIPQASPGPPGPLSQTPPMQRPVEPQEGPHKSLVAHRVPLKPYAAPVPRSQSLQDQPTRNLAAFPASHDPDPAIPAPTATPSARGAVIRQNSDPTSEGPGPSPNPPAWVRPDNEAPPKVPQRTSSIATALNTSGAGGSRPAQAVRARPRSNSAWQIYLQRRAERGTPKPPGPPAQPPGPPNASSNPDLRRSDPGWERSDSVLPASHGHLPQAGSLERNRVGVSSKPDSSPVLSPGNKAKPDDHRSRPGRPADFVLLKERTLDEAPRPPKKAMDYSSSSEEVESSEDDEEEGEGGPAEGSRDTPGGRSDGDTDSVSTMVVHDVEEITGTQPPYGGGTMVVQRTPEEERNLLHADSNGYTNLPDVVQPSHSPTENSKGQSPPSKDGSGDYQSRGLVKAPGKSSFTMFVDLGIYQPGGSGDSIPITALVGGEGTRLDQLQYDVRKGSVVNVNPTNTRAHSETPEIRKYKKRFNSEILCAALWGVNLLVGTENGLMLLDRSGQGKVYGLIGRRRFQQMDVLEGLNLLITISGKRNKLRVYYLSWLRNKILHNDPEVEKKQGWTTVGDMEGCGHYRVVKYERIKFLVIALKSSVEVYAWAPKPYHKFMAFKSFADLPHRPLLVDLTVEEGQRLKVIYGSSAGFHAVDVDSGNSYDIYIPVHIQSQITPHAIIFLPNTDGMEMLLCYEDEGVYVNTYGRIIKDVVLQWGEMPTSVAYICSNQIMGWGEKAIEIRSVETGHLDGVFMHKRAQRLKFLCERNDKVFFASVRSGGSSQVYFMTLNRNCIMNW
# RAC-alpha serine/threonine-protein kinase (Homo sapiens), sequence (P31749 whole entry): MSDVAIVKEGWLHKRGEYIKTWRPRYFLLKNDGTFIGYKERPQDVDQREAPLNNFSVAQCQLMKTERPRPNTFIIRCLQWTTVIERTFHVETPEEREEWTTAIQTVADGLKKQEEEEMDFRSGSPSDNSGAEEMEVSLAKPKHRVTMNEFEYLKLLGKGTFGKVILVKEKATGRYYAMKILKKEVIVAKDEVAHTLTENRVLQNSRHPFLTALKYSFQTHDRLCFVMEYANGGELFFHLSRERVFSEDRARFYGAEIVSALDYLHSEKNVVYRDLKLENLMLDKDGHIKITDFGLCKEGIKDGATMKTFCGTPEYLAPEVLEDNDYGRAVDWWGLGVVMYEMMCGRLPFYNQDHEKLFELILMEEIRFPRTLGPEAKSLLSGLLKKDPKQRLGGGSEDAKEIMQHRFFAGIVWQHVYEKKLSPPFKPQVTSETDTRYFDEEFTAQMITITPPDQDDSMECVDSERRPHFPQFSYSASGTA
# Casein kinase I isoform gamma-1 (Homo sapiens), sequence (Q9HCP0 whole entry, looked up, canonical isoform): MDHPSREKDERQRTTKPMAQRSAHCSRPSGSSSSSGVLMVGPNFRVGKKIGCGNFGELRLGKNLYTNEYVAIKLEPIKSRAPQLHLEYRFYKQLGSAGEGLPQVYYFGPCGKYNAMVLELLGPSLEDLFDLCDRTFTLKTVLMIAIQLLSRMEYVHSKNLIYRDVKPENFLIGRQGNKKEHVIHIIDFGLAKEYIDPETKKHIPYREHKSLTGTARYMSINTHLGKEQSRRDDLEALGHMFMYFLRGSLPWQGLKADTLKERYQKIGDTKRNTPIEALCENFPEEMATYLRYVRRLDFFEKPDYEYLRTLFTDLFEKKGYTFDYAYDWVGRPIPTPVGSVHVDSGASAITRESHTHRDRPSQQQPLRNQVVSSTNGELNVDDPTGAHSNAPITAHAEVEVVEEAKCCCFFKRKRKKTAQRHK
# Casein kinase II subunit alpha (Homo sapiens), sequence (P68400 whole entry, looked up, canonical isoform): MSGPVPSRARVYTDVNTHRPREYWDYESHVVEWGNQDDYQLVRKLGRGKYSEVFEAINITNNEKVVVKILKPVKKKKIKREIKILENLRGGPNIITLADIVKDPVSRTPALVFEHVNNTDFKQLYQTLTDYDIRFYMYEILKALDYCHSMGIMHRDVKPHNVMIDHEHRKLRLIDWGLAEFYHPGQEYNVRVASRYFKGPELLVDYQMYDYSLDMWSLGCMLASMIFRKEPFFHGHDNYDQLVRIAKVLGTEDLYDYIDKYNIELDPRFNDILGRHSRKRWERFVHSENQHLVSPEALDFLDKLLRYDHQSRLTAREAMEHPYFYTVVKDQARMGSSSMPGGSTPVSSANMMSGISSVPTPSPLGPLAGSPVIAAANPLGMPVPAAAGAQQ
Structure (SMILES),inhibition [1] [%],inhibition [2] [%],Ratio [3],inhibition [4] [%],inhibition [5] [%],inhibition [6] [%],Kinact [7] [min⁻¹],pKi [8],inhibition [9] [%]
Nc1ncnc2c1ccn2C1CCN(C(=O)c2ccc(S(=O)(=O)F)cc2)CC1,7,20,14200,9,23,18,0.282,6.52,5
Cc1nc(N)c2ccn(C3CCN(C(=O)c4ccc(S(=O)(=O)F)cc4)CC3)c2n1,27,24,3140,16,16,97,0.129,6.15,17
